Results as given in article PMC11257323, “Thermostabilization of a fungal laccase by entrapment in enzymatically synthesized levan nanoparticles” (PLOS ONE, 2024).

Biological target: T1, LevS△N70Tn38 (Leuconostoc mesenteroides, UniProt Q1L7R6)
T1 construct: truncated levansucrase LevS△N70Tn38 (name implies N-terminal 70-residue deletion); pET-22b, expressed in E. coli BL21, DEAE-purified
Assay: DNS reducing-sugar assay
Type: biochemical
Conditions: 292 mM sucrose; 50 mM acetate pH 6.0; 1 mM CaCl2; 30°C

T1 sequence (Q1L7R6 entry or part of it): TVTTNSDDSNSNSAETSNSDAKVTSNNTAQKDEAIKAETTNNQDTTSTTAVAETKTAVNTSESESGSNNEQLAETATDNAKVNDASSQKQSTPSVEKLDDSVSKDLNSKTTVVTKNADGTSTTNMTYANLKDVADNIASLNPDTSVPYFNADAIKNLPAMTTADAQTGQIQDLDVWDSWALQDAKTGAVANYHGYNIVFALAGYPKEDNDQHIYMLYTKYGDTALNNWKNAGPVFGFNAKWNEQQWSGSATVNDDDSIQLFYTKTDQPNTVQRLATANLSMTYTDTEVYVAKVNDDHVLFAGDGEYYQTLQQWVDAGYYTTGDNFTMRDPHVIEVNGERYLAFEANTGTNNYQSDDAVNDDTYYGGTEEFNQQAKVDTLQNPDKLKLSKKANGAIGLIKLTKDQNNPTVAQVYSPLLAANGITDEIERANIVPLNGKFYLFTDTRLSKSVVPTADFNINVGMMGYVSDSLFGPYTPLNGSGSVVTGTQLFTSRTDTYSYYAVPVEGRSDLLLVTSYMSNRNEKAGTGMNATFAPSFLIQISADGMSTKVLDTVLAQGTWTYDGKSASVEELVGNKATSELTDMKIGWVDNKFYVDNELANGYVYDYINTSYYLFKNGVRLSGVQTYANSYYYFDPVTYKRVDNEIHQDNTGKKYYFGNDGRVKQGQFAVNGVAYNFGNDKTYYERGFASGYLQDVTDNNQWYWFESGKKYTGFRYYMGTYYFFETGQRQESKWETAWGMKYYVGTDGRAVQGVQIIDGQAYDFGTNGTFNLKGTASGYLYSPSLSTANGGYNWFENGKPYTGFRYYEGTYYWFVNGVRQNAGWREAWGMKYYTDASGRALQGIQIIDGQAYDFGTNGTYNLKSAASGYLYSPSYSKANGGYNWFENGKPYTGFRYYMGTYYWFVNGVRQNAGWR

OC[C@H]1O[C@@](CO)(O[C@H]2O[C@H](CO)[C@@H](O)[C@H](O)[C@H]2O)[C@@H](O)[C@@H]1O [sucrose]
DNS reducing-sugar assay: LevS△N70Tn38 activity was determined by quantification of released reducing sugars from sucrose
